Data reported in article PMC10893631, “Receptor-based pharmacophore modeling, molecular docking, synthesis and biological evaluation of novel VEGFR-2, FGFR-1, and BRAF multi-kinase inhibitors” (BMC Chemistry, 2024).

Tests used:
Assay in all cases: NCI SRB growth inhibition (single dose 10 µM / five-dose)
Assay type in all cases: cell-based, human
A498 = conditions: Homo sapiens; A498 (Renal cancer), 10 µM; read-out: GI%
Procedure, shortened: (§1)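 After a 24 h pre-incubation, cells received drug at five serially diluted concentrations; two untreated plates per line were TCA-fixed at drug addition as Tz. Adherent plates were fixed with cold TCA, stained with SRB and washed with 1% acetic acid.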

A549/ATCC = conditions: Homo sapiens; A549/ATCC (Non-small cell lung cancer), 10 µM; read-out: GI%
Procedure, shortened: as §1

ACHN = conditions: Homo sapiens; ACHN (Renal cancer), 10 µM; read-out: GI%
Procedure, shortened: as §1

BT-549 = conditions: Homo sapiens; BT-549 (Breast cancer), 10 µM; read-out: GI%
Procedure, shortened: as §1

CAKI-1 = conditions: Homo sapiens; CAKI-1 (Renal cancer), 10 µM; read-out: GI%
Procedure, shortened: as §1

CCRF-CEM = conditions: Homo sapiens; CCRF-CEM (Leukemia), 10 µM; read-out: GI%
Procedure, shortened: as §1

HCC-2998 = conditions: Homo sapiens; HCC-2998 (Colon cancer), 10 µM; read-out: GI%
Procedure, shortened: as §1

HCT-15 = conditions: Homo sapiens; HCT-15 (Colon cancer), 10 µM; read-out: GI%
Procedure, shortened: as §1

HL-60(TB) = conditions: Homo sapiens; HL-60(TB) (Leukemia), 10 µM; read-out: GI%
Procedure, shortened: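 Cells plated at 5000–40,000 cells/well by doubling time; time-zero plates TCA-fixed after 24 h. Compounds (DMSO stocks) added at five 10-fold or ½-log concentrations plus control. Adherent cells TCA-fixed, stained with 0.4% SRB in 1% acetic acid; percentage growth from Tz, C and Ti absorbances.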

HOP-62 = conditions: Homo sapiens; HOP-62 (Non-small cell lung cancer), 10 µM; read-out: GI%
Procedure, shortened: as §1

HS 578 T = conditions: Homo sapiens; HS 578 T (Breast cancer), 10 µM; read-out: GI%
Procedure, shortened: as §1

HT29 = conditions: Homo sapiens, HT-29; HT29 (Colon cancer), 10 µM; read-out: GI%
Procedure, shortened: as §1

LOX IMVI = conditions: Homo sapiens; LOX IMVI (Melanoma), 10 µM; read-out: GI%
Procedure, shortened: as §1

MCF7 = conditions: Homo sapiens; MCF7 (Breast cancer), 10 µM; read-out: GI%
Procedure, shortened: as §1

MDA-MB-231/ATCC = conditions: Homo sapiens; MDA-MB-231/ATCC (Breast cancer), 10 µM; read-out: GI%
Procedure, shortened: as §1

MOLT-4 = conditions: Homo sapiens; MOLT-4 (Leukemia), 10 µM; read-out: GI%
Procedure, shortened: as §1

NCI-H23 = conditions: Homo sapiens; NCI-H23 (Non-small cell lung cancer), 10 µM; read-out: GI%
Procedure, shortened: as §1

NCI-H322M = conditions: Homo sapiens; NCI-H322M (Non-small cell lung cancer), 10 µM; read-out: GI%
Procedure, shortened: as §1

OVCAR-5 = conditions: Homo sapiens; OVCAR-5 (Ovarian cancer), 10 µM; read-out: GI%
Procedure, shortened: as §1

OVCAR-8 = conditions: Homo sapiens; OVCAR-8 (Ovarian cancer), 10 µM; read-out: GI%
Procedure, shortened: as §1

PC-3 = conditions: Homo sapiens; PC-3 (Prostate cancer), 10 µM; read-out: GI%
Procedure, shortened: as §1

SF-268 = conditions: Homo sapiens; SF-268 (CNS cancer), 10 µM; read-out: GI%
Procedure, shortened: as §1

SK-MEL-2 = conditions: Homo sapiens; SK-MEL-2 (Melanoma), 10 µM; read-out: GI%
Procedure, shortened: as §1

SR = conditions: Homo sapiens; SR (Leukemia), 10 µM; read-out: GI%
Procedure, shortened: as §1

UACC-257 = conditions: Homo sapiens; UACC-257 (Melanoma), 10 µM; read-out: GI%
Procedure, shortened: as §1

SNB-19 = conditions: Homo sapiens; SNB-19 (CNS cancer), 10 µM; read-out: GI%
Procedure, shortened: as §1

SMILES	inhibition at 10 µM (A498) [%]	inhibition at 10 µM (A549/ATCC) [%]	inhibition at 10 µM (ACHN) [%]	inhibition at 10 µM (BT-549) [%]	inhibition at 10 µM (CAKI-1) [%]	inhibition at 10 µM (CCRF-CEM) [%]	inhibition at 10 µM (HCC-2998) [%]	inhibition at 10 µM (HCT-15) [%]	inhibition at 10 µM (HL-60(TB)) [%]	inhibition at 10 µM (HS 578 T) [%]	inhibition at 10 µM (LOX IMVI) [%]	inhibition at 10 µM (MCF7) [%]	inhibition at 10 µM (MDA-MB-231/ATCC) [%]	inhibition at 10 µM (MOLT-4) [%]	inhibition at 10 µM (NCI-H23) [%]	inhibition at 10 µM (NCI-H322M) [%]	inhibition at 10 µM (OVCAR-5) [%]	inhibition at 10 µM (OVCAR-8) [%]	inhibition at 10 µM (PC-3) [%]	inhibition at 10 µM (SF-268) [%]	other results
O=C(NN=Cc1cccc(O)c1)c1ccc2[nH]c(-c3ccc(Cl)cc3)nc2c1 [8p, 2-(4-Chlorophenyl)-N'-(3-hydroxybenzylidene)-1H-benzo[d]imidazole-5-carbohydrazide]	10.2	7.53	< 5	< 5	< 5	71.9	15.9	< 5	< 5	27.1	14.7	72.3	45.2	68.6	56.6	< 5	< 5	19	48.8	24.2	inhibition at 10 µM (HOP-62): 32.5%; inhibition at 10 µM (HT29): 19.9%; inhibition at 10 µM (SK-MEL-2): 24%; inhibition at 10 µM (SR): 26.4%; inhibition at 10 µM (UACC-257): < 5%
COc1ccc(-c2nc3cc(C(=O)NN=Cc4cc(OC)c(OC)c(OC)c4)ccc3[nH]2)cc1 [8n, 2-(4-Methoxyphenyl)-N'-(3,4,5-trimethoxybenzylidene)-1H-benzo[d]imidazole-5-carbohydrazide]	< 5	< 5	9.17	< 5	23.8	38.8	< 5	< 5	< 5	37.7	7.53	73.1	7.37	22.1	10.8	< 5	< 5	15	12.9	21	inhibition at 10 µM (HOP-62): 14.6%; inhibition at 10 µM (SNB-19): 36.2%; inhibition at 10 µM (SR): 26.9%; inhibition at 10 µM (UACC-257): 25.6%
COc1ccc(C=NNC(=O)c2ccc3[nH]c(-c4ccc(Cl)cc4)nc3c2)cc1O [8s, 2-(4-Chlorophenyl)-N'-(3-hydroxy-4-methoxybenzylidene)-1H-benzo[d]imidazole-5-carbohydrazide]	< 5	7.66	< 5	42.9	18.5	> 100	86.8	23.3	45.3	86.9	44.9	84.9	75.1	83.7	29.2	18.1	< 5	43.2	56.5	72.7	inhibition at 10 µM (HT29): > 100%; inhibition at 10 µM (SK-MEL-2): 76.1%; inhibition at 10 µM (SNB-19): 39.7%; inhibition at 10 µM (SR): 77.2%; inhibition at 10 µM (UACC-257): 24.6%
COc1ccc(OC)c(C=NNC(=O)c2ccc3[nH]c(-c4ccccc4)nc3c2)c1 [8f, N'-(2,5-Dimethoxybenzylidene)-2-phenyl-1H-benzo[d]imidazole-5-carbohydrazide]	< 5	17.2	36.5	38.2	41.5	80.5	8.92	65.2	36.3	49.9	62.5	54.1	38	49.5	46.7	12.3	< 5	52.6	55.5	36.6	inhibition at 10 µM (HT29): 14.7%; inhibition at 10 µM (SK-MEL-2): 16.7%; inhibition at 10 µM (SNB-19): 21.4%; inhibition at 10 µM (SR): 36.3%; inhibition at 10 µM (UACC-257): < 5%
COc1cc(C=NNC(=O)c2ccc3[nH]c(-c4ccccc4)nc3c2)cc(OC)c1OC [8g, 2-Phenyl-N'-(3,4,5-trimethoxybenzylidene)-1H-benzo[d]imidazole-5-carbohydrazide]	< 5	29.3	33.8	35.4	49.7	62	44.3	38.4	17.1	51	56.5	86	30.5	21.2	49.4	15.7	< 5	48.7	37.9	32	inhibition at 10 µM (HT29): 47.3%; inhibition at 10 µM (SK-MEL-2): 21.8%; inhibition at 10 µM (SNB-19): 25.2%; inhibition at 10 µM (SR): 17.6%; inhibition at 10 µM (UACC-257): 54.3%
